{
  "source": "patent US10004785B2",
  "about": "“LKKTET and/or LKKTNT peptide compositions which are lyophilized or in a form capable of being lyophilized” (RegeneRX Biopharmaceuticals, Inc., priority 2005, dated 2018)",
  "key": {"[1]": {"system": "Human corneal epithelial cells", "experiment": "colorimetric BrdU incorporation assay (cell proliferation)", "type": "cell-based", "conditions": "1 mcg/ml Tβ4, 3 and 24 hour time points", "experimental": "(§1) Human corneal epithelial cells at approximately 80% confluence were treated with 0%, 0.001%, 0.01%, or 0.1% BAK for 15 minutes. After 3 and 24 hours of recovery in culture medium, cell proliferation was measured using a colorimetric BrdU incorporation assay. Apoptosis was measured using a colorimetric annexin-based cell death assay. […] To further assess the ability of Tb4 to prevent apoptosis, corneal epithelial cells were treated with 0.01% BAK±Tβ4 over a 5 day time course."}, "[2]": {"system": "Human corneal epithelial cells", "experiment": "colorimetric annexin-based cell death assay (apoptosis)", "conditions": "1 mcg/ml Tβ4, 3 and 24 hour time points", "experimental": "as §1"}},
  "data": [
    {"substance": "Thymosin beta 4 (SDKPDMAEIEKFDKSKLKKTETQEKNPLPSKETIEQEKQAGES; Thymosin beta-4; UniProt P62328 2-44, looked up) [Tβ4, a 43 amino acid, 4.9 kDa ubiquitous polypeptide originally isolated from the thymus]", "values": [
      {"measurement": "cell proliferation of BAK-treated corneal epithelial cells", "setting": "[1]", "result": "not promoted"},
      {"measurement": "apoptosis of BAK-treated corneal epithelial cells", "setting": "[2]", "result": "not inhibited"}
    ]}
  ]
}
